The values below come from PubChem BioAssay AID1645862 (Buhrlage Lab, Dana-Farber Cancer Institute and Novartis …, 2021).

Activity calls are given as the source filed them. The rule behind the calls is not given here.

The experiment deals with Ubiquitin carboxyl-terminal hydrolase 8 (Homo sapiens) (UniProt P40818). Description: Ubiquitin-specific protease 8 inhibitors, concentration-effect, biochemical, validation of initial actives (AID 1645862).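 Note: potency reflects inhibition of USP8 cleavage of a ubiquitin rhodamine substrate.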 Conditions: recombinant USP8 deubiquitinase activity assay.
Sequence of Ubiquitin carboxyl-terminal hydrolase 8 (Homo sapiens) (P40818 whole entry, looked up): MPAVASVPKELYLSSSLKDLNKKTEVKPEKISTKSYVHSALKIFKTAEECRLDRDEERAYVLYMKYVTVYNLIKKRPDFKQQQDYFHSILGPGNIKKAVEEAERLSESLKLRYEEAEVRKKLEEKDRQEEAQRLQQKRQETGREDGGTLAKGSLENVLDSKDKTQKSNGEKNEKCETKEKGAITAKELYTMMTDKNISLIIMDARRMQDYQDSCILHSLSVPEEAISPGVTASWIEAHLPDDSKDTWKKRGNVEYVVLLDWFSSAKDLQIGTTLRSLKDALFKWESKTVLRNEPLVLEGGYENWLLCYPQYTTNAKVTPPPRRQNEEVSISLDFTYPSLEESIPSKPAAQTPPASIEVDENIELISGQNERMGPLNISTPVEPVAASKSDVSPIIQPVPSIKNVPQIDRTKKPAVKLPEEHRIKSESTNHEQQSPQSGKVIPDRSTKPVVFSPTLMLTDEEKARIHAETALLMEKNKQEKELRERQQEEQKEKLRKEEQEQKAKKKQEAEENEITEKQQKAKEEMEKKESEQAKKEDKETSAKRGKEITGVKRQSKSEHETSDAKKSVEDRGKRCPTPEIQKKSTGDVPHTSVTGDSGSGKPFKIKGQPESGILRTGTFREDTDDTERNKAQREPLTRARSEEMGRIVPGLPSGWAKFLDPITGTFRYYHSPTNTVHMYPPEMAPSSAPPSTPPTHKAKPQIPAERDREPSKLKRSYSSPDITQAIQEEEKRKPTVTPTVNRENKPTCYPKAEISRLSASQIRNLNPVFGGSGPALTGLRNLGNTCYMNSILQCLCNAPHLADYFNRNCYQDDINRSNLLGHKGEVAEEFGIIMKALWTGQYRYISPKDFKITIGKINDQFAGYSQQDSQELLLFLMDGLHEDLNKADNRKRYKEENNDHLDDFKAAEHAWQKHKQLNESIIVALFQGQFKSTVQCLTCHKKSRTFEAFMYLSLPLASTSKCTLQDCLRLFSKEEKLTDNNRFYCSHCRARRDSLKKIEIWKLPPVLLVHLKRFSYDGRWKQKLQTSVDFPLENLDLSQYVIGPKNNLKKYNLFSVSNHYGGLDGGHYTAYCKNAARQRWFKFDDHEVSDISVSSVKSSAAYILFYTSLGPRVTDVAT

One may read the IC50 as the concentration that inhibits the measured activity by half. As to `CC[C@H](C)[C@H](NC(=O)[C@H]([C@@H](C)CC)N(C)C(C)=O)C(=O)N[C@H](C(=O)N[C@@H](CC(C)C)C(=O)C1(C)CO1)[C@@H](C)O` (stereo partly specified), the IC50 was > 40 µM (inactive).

With `Cn1cc(NC(=O)Nc2cccc(C(F)(F)F)c2)c2ccccc2c1=O`, the IC50 was 9.33 µM. Under `Cc1cccc(NC(=O)CCCc2nnc3c(=O)n(-c4cccc(F)c4)ccn23)c1` stands > 40 µM (inactive). Under `CC(CCc1ccccc1)NC(=O)Cn1c(=O)c2cccn2c2ccccc21` (stereo unspecified) stands > 40 µM (inactive); under `CC(C)NC(=O)Cn1ccn2nc(-c3ccc(Cl)cc3)cc2c1=O`, > 40 µM (inactive); under `Cc1cc(N2CCN(c3ncccn3)CC2)nc2ccc(NC(=O)c3ccncc3)cc12`, > 40 µM (inactive). For `Cc1c(Cl)cccc1NC(=O)Cn1cc(C(=O)C2CC2)c2ccccc21`, the IC50 was > 40 µM (inactive). Consider `O=c1c(O)c(-c2ccc(O)c(O)c2)oc2cc(O)cc(O)c12`, for which the IC50 was 0.802 µM. With `COc1ccc(-c2cc(C(=O)Nc3ccnn3Cc3ccccc3)no2)cc1` the figure was > 40 µM (inactive). Under `O=[N+]([O-])c1ccc2c(c1)nc1n2CCN(Cc2ccco2)C1` stands > 40 µM (inactive); under `O=C(Cc1nnc(NC(=O)Nc2ccc3c(c2)OCO3)s1)NCc1ccccc1`, > 40 µM (inactive); under `COc1ccccc1N1CCN(C(=O)c2ccc3c(=O)n(CCc4ccccc4)c(=O)[nH]c3c2)CC1`, > 40 µM (inactive). As to `CCOc1ncccc1C(=O)Nc1ccnn1Cc1ccccc1`, the IC50 is > 40 µM (inactive). With `COc1ccc(C(=O)Nc2ccccc2C(=O)NC(Cc2ccc(O)cc2)C(=O)NNC(=O)Cc2ccc(OC)c(OC)c2)cc1` (stereo unspecified) the figure was > 40 µM (inactive); with `O=c1cc(Cc2ccccc2)nc2c(-c3ccccc3)c(COc3ccccc3)[nH]n12`, > 40 µM (inactive). Under `CC1=C(Cn2c3cccc(=O)c-3nc3ccccc32)CCC(C)(C)C1` stands 1.71 µM; under `O=C(NCCc1nc2ccccc2n1CCCOc1ccccc1Cl)C1CCCCC1`, > 40 µM (inactive). On to `CCOc1ccc(Oc2nc(CN3CCCC3)nc3sc(C)c(C)c23)cc1`, for which the IC50 is > 40 µM (inactive). Under `O=C(Cn1c(=O)n(CC2CCC(C(=O)NCCc3ccccc3)CC2)c(=O)c2ccccc21)NCc1ccco1` (stereo unspecified) stands > 40 µM (inactive). `CCOC(=O)CCc1c(C)c2ccc(OCC(=O)c3ccc(-c4ccccc4)cc3)c(C)c2oc1=O`: the IC50 is > 40 µM (inactive).

On to `Cc1nnc(-c2ccc3ccn(CC(=O)N4CCN(c5ccccc5)CC4)c3c2)o1`, for which the IC50 was > 40 µM (inactive).

Consider `Cc1cc(C(=O)NC2(O)C(=O)c3ccccc3C2=O)n(C)n1`, for which the IC50 is 8.2 µM. With `CCNS(=O)(=O)c1ccc(-c2ccc(-n3cnnn3)cc2)cc1` the figure was > 40 µM (inactive).

On to `COc1ccc(NC(=O)COc2cc(C)nc(-c3ccc(C)cc3)n2)c(OC)c1`, for which the IC50 is > 40 µM (inactive). With `COc1ccccc1C(=O)N1CCC[C@H](Cn2nnc(-c3cccnc3)n2)C1` the figure was > 40 µM (inactive); with `N#Cc1cccc(NC(=O)Cn2cccc2-c2nc(-c3ccccc3)no2)c1`, > 40 µM (inactive); with `CCC/C=C\C#CC/C=C\CCCCCCCC(=O)O`, 2.48 µM. As for `Cc1c(NC(=O)/C=C/c2cccc(Cl)c2Cl)cccc1-n1cnnn1`, the IC50 was > 40 µM (inactive). Under `C=C1C=C(CCC(=O)O)C(=O)OC1/C=C/C=C/C` (stereo unspecified) stands 2.09 µM; under `O=C(NCc1ccccc1)Nc1cccc2ccccc12`, > 40 µM (inactive); under `Cc1ccc(-c2nc3c(c(SCC(=O)c4ccccc4)n2)COC(C)(C)C3)cc1`, > 40 µM (inactive). Under `O=C(c1cnc2[nH][nH]c(=O)c2c1)c1cc(Cl)cc(Cl)c1O` stands 10.7 µM; under `O=C(CCCn1c(=O)c2ccccc2n(CC(=O)c2ccc(Br)cc2)c1=O)NC1CCCC1`, > 40 µM (inactive); under `Cc1cc(NS(=O)(=O)c2ccc(NC(=O)COc3ccc(Cl)cc3)cc2)no1`, > 40 µM (inactive). With `O=c1[nH]c(C2CCN(S(=O)(=O)c3ccc(S(=O)(=O)NC4CCCCC4)cc3)CC2)nc2c1nnn2Cc1c(Cl)cccc1Cl` the figure was > 40 µM (inactive); with `Cc1ccc(-n2c(=O)[nH]c3c(C(N)=O)nc(-c4ccc(OCc5ccccc5)cc4)nc32)cc1`, > 40 µM (inactive).

With `O=C(Cn1c(=O)n(-c2ccc(Cl)cc2)c(=O)c2c3c(sc21)CCCC3)NCC1CCCO1` (stereo unspecified), the IC50 is > 40 µM (inactive). Consider `O=C(NCc1ccc(F)cc1)c1cccc(Nc2nc3ccccc3n3cnnc23)c1`, for which the IC50 is > 40 µM (inactive). With `CC(C)=CCC/C(C)=C/COc1ccc(/C=C2\C(=O)N(O)[C@@H](C)C(=O)N2O)cc1` the figure was > 40 µM (inactive); with `O=C(Nc1cccc(-c2nc3cnccc3o2)c1)c1ccc(Br)o1`, > 40 µM (inactive). With `O=C(COC(=O)c1cc2c(s1)CCC2)c1ccc2[nH]c(=O)[nH]c2c1` the figure was > 40 µM (inactive). With `CCOc1ccc(-n2c(SCC(=O)Nc3ccc(C)cc3)nnc2-c2c[nH]c3ccccc23)cc1`, the IC50 is 28.1 µM.

`COC(=O)c1ccc2c(=O)n(-c3ccc(C)c(F)c3)c(N3CCC(C(N)=O)CC3)nc2c1`: the IC50 was > 40 µM (inactive). On to `O=C(Cn1c(=O)[nH]c2c(-c3ccc(F)cc3)c[nH]c2c1=O)NCc1ccc(F)cc1`, for which the IC50 is > 40 µM (inactive). Under `Cc1cc(C)c(NC(=O)Cn2c(=O)n(CCC(=O)NCc3ccc4c(c3)OCO4)c(=O)c3sccc32)c(C)c1` stands > 40 µM (inactive); under `Cc1[nH]c2ccc(F)cc2c(=O)c1CN1CCCCC1`, > 40 µM (inactive); under `CCOC(=O)N1CCN(C(=O)c2ccc(NCc3ccc(F)cc3)c(S(=O)(=O)Nc3cccc(C(F)(F)F)c3)c2)CC1`, > 40 µM (inactive).

Regarding `Cc1cccc(C)c1NC(=O)COc1ccccc1-c1nnc(-c2ccccc2)o1`, the IC50 was > 40 µM (inactive). For `O=C(NC1CCCC1)c1ccc(Cn2c(=O)c3ccccc3n(Cc3cc(=O)n4ccccc4n3)c2=O)cc1`, the IC50 was > 40 µM (inactive). Under `COc1ccccc1CN1CCC(c2cc(=O)[nH]c(-c3cccnc3)n2)CC1` stands > 40 µM (inactive). With `Cc1cc(=O)n2c3c(c4c(cc13)c(CO)cc(=O)n4C)OC2` the figure was 22.6 µM; with `COc1cc(OC)c(NC(=O)Cn2c(=O)n(Cc3ccccc3Cl)c(=O)c3cc(OC)c(OC)cc32)cc1Cl`, > 40 µM (inactive). With `O=C(NCc1ccc2c(c1)OCO2)c1cc2c(s1)-c1ccccc1OC2` the figure was > 40 µM (inactive); with `CSc1ccc(CNC(=O)Cn2c(=O)[nH]c3c(-c4ccccc4)c[nH]c3c2=O)cc1`, > 40 µM (inactive). Consider `Cc1cccc(C)c1NC(=O)CN1C(=O)CC(c2ccccc2)=Nc2ccccc21`, for which the IC50 was > 40 µM (inactive). For `Cc1cc(N2CCN(c3ncccn3)CC2)nc2ccc(NC(=O)Cn3nc([N+](=O)[O-])c(Br)c3C)cc12`, the IC50 is > 40 µM (inactive). With `CCc1ccc(-n2cc(OC(C)=O)c3c2nc(C)n2c4ccccc4nc32)cc1` the figure was > 40 µM (inactive); with `CCc1ccccc1NC(=O)CN1C(=O)C2CCCC2=Nc2ccccc21` (stereo unspecified), > 40 µM (inactive); with `CC(C)c1ccc(NC(=O)c2cc(-c3cccnc3)n[nH]2)cc1`, 28.6 µM.

As to `COc1ccccc1N(CC(=O)N1c2ccccc2CC1C)S(=O)(=O)c1ccc(F)cc1` (stereo unspecified), the IC50 was > 40 µM (inactive). With `COc1ccc(Cn2nc(C)cc2NC(=O)c2cccc(F)c2)cc1OC` the figure was > 40 µM (inactive). With `O=C(CN1C(=O)c2ccccc2C1=O)Nc1nc(-c2ccc(Br)cc2)cs1` the figure was > 40 µM (inactive); with `Cc1ccc(Nc2nc3c(S(=O)(=O)c4ccccc4)nnn3c3ccccc23)c(C)c1`, > 40 µM (inactive). With `Cc1ccc(CNC(=O)c2ccc3nn(CC(=O)Nc4ccccc4F)c(=O)n3c2)cc1` the figure was > 40 µM (inactive); with `O=C(CNC(=O)OCc1ccccc1)Nc1ccc(Br)cc1C(=O)c1ccccc1Cl`, > 40 µM (inactive); with `CC(C)CC(=O)Nc1cc(F)c2nc(N3CCOCC3)ccc2c1`, > 40 µM (inactive). In the case of `CCc1ccc(OCCn2c(CCNC(=O)C3CCCCC3)nc3ccccc32)cc1`, the IC50 was > 40 µM (inactive). Under `COc1ccccc1-c1noc(CCCC(=O)Nc2ccccc2)n1` stands > 40 µM (inactive); under `CCc1ccc(-n2c(C)cc(/C=C3\C(=N)N4N=CSC4=NC3=O)c2C)cc1`, > 40 µM (inactive); under `O=C1CSC(c2ccc(F)cc2)c2c(n(C3CCCCCC3)[nH]c2=O)N1` (stereo unspecified), 31.9 µM.

As to `COc1ccc(C2(c3nnc(C(C)Oc4ccc(F)cc4)o3)CCOCC2)cc1` (stereo unspecified), the IC50 is > 40 µM (inactive). Under `Cc1cccc(C(=O)OCC(=O)Nc2ccc3[nH]c(=O)[nH]c3c2)c1C` stands > 40 µM (inactive); under `COc1ccc(Cl)cc1NC(=O)c1nc(-c2cn(-c3ccccc3)nn2)no1`, > 40 µM (inactive); under `Cc1cccc(Cl)c1NC(=O)Nc1ccc(NC(=O)c2ccccc2O)cc1`, > 40 µM (inactive). Under `CCCn1c(=O)c2sccc2n2c(CCC(=O)N3CCc4ccccc4C3)nnc12` stands > 40 µM (inactive); under `O=C(CC1C(=O)N(C2CCCC2)c2nc3ccccc3n21)Nc1ccccc1` (stereo unspecified), > 40 µM (inactive). Turning to `Cc1cc(Cl)ccc1NC(=O)c1cc(-c2cccnc2)n[nH]1`, the IC50 is > 40 µM (inactive).

Turning to `COc1ccc(-c2nc(-c3nnn(Cc4ccc(F)cc4)c3C)no2)c(OC)c1`, the IC50 was > 40 µM (inactive). Under `COc1ccc(C)cc1NC(=O)Nc1nnc(CC(=O)NCc2ccccc2)s1` stands > 40 µM (inactive); under `COc1cc2c(c(OC)c1OC)-c1ccc(NCCc3cccc(F)c3)c(=O)cc1[C@@H](NC(C)=O)CC2`, > 40 µM (inactive); under `Cc1ccccc1-c1noc(-c2cn(Cc3ccc(NC(=O)Cc4ccccc4)cc3)cn2)n1`, > 40 µM (inactive).
